Assay results as given in patent US20030130180A1, “Utilization of an aminopeptidase inhibitor” (priority 2000, published 2003).

Test system: Karpas cells
Test: Detection of surface protein combinations of the protein network on untreated (V1) and actinonin-treated (V2) Karpas cells
Format: cell-based
Conditions: for V2 no. of cells / V2 no. of cells In 1/1OOO: actinonin-treated Karpas cells
From the text: Principally, detecting of the surface protein combinations may comprise procedural steps of an automated method for determining molecular classes, molecular groups or molecular parts in a solid or liquid object according to DE 197 09 348 C. In these steps, surface proteins may be examined and measured in one and the same object, i.e. in a sample of immune cells and/or tumor cells for example, by sequentially applying reagent solutions Yn (n=1,2,3, . . . N) by means of an automated apparatus, said procedural steps being: I. taking a first reagent solution Y1 from a vessel containing the reagent solution, II. applying said reagent solution Y1 to the object which is on an object slide, III. allowing the reagent solution to react for an automatically set period of time, IV. recording at least one individual labeling pattern of the object previously labeled with said first reagent solution Y1, V. repeating steps I-IV by applying said first reagent solution Y1 or a second reagent solution Y2 or a mixture of said first and second reagent solutions, and VI. repeating steps I to V with further reagent solutions Yn (n=2,3, . . . N) or a mixture thereof and whereby the labeling distribution patterns obtained in each cycle of the method are turned into a complex molecular combination pattern of the object to be examined by computer-aided image overlay. From this combination pattern, information may be gained on the presence of the above mentioned proteins, thus also allowing detection of the surface protein combinations, if the reagent solutions used contain labeled substances directed against the proteins in question. In numerous examinations, it was possible to identify the 30 cell surface proteins already listed above which belong to a specific protein network controlling the early polarization stages of tumor cells and immune cells. In a further examination, surface protein combinations of this protein network of Karpas cells were detected, both in untreated form and after treatment with the aminopeptidase inhibitor actinonin. For this purpose, two groups V1 and V2 of Karpas cells were formed, with the cells of group Vl remaining untreated, while the cells of group V2 were treated with actinonin. Table 2 lists those surface protein combinations which are present both in the actinonin-treated cells and in the untreated cells. However, this table and the further tables 3 and 4 only give examples of 18 of the 30 proteins, with the detected proteins being designated 1 and the non-detected proteins being designated 0. The proteins are continuously numbered 1 to 18, with the nomenclature being notable from table 1. [table] The cell numbers stated in tables 2 to 4 refer to each 1,000 cells examined in groups V1 and V2. Table 3 lists the surface protein combinations which only occur in the untreated Karpas cells and are never found in the actinonin-treated Karpas cells. The number of protein combinations listed in this table 3 amounts to 131. Finally, table 4 exclusively lists those surface protein combinations which occur exclusively in the actinonin-treated Karpas cells. It may be gathered from tables 2 to 4 that, if one examines merely 18 proteins of the 30 proteins, a total of 394 different surface protein combinations will occur, with a total of 334 different combinations occurring in the untreated cells and a total of 263 different combinations being detected in the treated cells.

In the case of `CCCCC[C@H](CC(=O)NO)C(=O)N[C@H](C(=O)N1CCC[C@H]1CO)C(C)C` [actinonin], the “V2 no. of cells” value (protein code No. 54, proteins 1-18 binary 011000001100001100) is reported as 1.5 1/1OOO, the “V2 no. of cells” value (protein code No. 55, proteins 1-18 binary 001000010100001000) is reported as 2.0 1/1OOO and the “V2 no. of cells” value (protein code No. 57, proteins 1-18 binary 101100110111011000) is reported as 2.4 1/1OOO. The “V2 no. of cells” value (protein code No. 58 (first line so numbered), proteins 1-18 binary 001100011101001000) was 1.7 1/1OOO, the “V2 no. of cells” value (protein code No. 58 (second line so numbered), proteins 1-18 binary 000000011101000000) was 2.9 1/1OOO and the “V2 no. of cells” value (protein code No. 59, proteins 1-18 binary 101100010111001000) was 1.5 1/1OOO. For the same compound, the “V2 no. of cells” value (protein code No. 60, proteins 1-18 binary 001000000101001000) was 1.5 1/1OOO, the “V2 no. of cells” value (protein code No. 61, proteins 1-18 binary 000000010111001000) was 1.6 1/1OOO and the “V2 no. of cells” value (protein code No. 62, proteins 1-18 binary 001000000001001000) was 0.6 1/1OOO. For the same compound, the “V2 no. of cells” value (protein code No. 63, proteins 1-18 binary 000000010100001000) was 1.6 1/1OOO, the “V2 no. of cells” value (protein code No. 64, proteins 1-18 binary 000000011001000000) was 2.1 1/1OOO and the “V2 no. of cells” value (protein code No. 65, proteins 1-18 binary 000000000011000000) was 0.7 1/1OOO. For the same compound, the “V2 no. of cells” value (protein code No. 66, proteins 1-18 binary 101000010101011000) was 1.0 1/1OOO, the “V2 no. of cells” value (protein code No. 67, proteins 1-18 binary 001100011111011000) was 1.8 1/1OOO and the “V2 no. of cells” value (protein code No. 68, proteins 1-18 binary 000000000010000000) was 0.1 1/1OOO. The “V2 no. of cells” value (protein code No. 69, proteins 1-18 binary 001000000011000000) was 1.2 1/1OOO, the “V2 no. of cells” value (protein code No. 70, proteins 1-18 binary 010000001100000100) was 1.5 1/1OOO and the “V2 no. of cells In 1/1OOO” value (surface protein combination No. 93, binary code 011100011101001000) was 0.7 1/1OOO. For the same compound, the “V2 no. of cells In 1/1OOO” value (surface protein combination No. 94, binary code 000000011000000000) was 1.0 1/1OOO, the “V2 no. of cells In 1/1OOO” value (surface protein combination No. 95, binary code 000000001101000000) was 1.4 1/1OOO and the “V2 no. of cells In 1/1OOO” value (surface protein combination No. 96, binary code 001100011101011000) was 0.3 1/1OOO. The “V2 no. of cells In 1/1OOO” value (surface protein combination No. 97, binary code 011000011101001100) was 0.7 1/1OOO, the “V2 no. of cells In 1/1OOO” value (surface protein combination No. 98, binary code 011000011100001100) was 0.9 1/1OOO and the “V2 no. of cells In 1/1OOO” value (surface protein combination No. 99, binary code 000000011101001000) was 0.9 1/1OOO. For the same compound, the “V2 no. of cells In 1/1OOO” value (surface protein combination No. 100, binary code 010000001000000000) was 0.3 1/1OOO, the “V2 no. of cells In 1/1OOO” value (surface protein combination No. 101, binary code 010000011101000000) was 0.5 1/1OOO and the “V2 no. of cells In 1/1OOO” value (surface protein combination No. 102, binary code 001100010101011100) was 0.6 1/1OOO. The “V2 no. of cells In 1/1OOO” value (surface protein combination No. 103, binary code 011000011001000000) was 0.7 1/1OOO, the “V2 no. of cells In 1/1OOO” value (surface protein combination No. 104, binary code 001000001001000000) was 0.8 1/1OOO and the “V2 no. of cells In 1/1OOO” value (surface protein combination No. 105, binary code 000000010111000000) was 0.9 1/1OOO. The “V2 no. of cells In 1/1OOO” value (surface protein combination No. 107, binary code 000100010001001000) was 0.2 1/1OOO, the “V2 no. of cells In 1/1OOO” value (surface protein combination No. 109, binary code 000100000000000000) was 0.6 1/1OOO and the “V2 no. of cells In 1/1OOO” value (surface protein combination No. 110, binary code 011000011111001000) was 0.8 1/1OOO. The “V2 no. of cells In 1/1OOO” value (surface protein combination No. 111, binary code 001000000100000000) was 0.8 1/1OOO, the “V2 no. of cells In 1/1OOO” value (surface protein combination No. 112, binary code 101000010111001000) was 0.2 1/1OOO and the “V2 no. of cells In 1/1OOO” value (surface protein combination No. 113, binary code 011000011111011000) was 0.2 1/1OOO. For the same compound, the “V2 no. of cells In 1/1OOO” value (surface protein combination No. 114, binary code 011000001100000000) was 0.2 1/1OOO, the “V2 no. of cells In 1/1OOO” value (surface protein combination No. 115, binary code 001000000111001000) was 0.3 1/1OOO and the “V2 no. of cells In 1/1OOO” value (surface protein combination No. 116, binary code 101100010101001000) was 0.6 1/1OOO. The “V2 no. of cells In 1/1OOO” value (surface protein combination No. 117, binary code 101100010011011000) was 0.6 1/1OOO, the “V2 no. of cells In 1/1OOO” value (surface protein combination No. 118, binary code 101100110111011100) was 0.7 1/1OOO and the “V2 no. of cells In 1/1OOO” value (surface protein combination No. 119, binary code 000000010010000000) was 0.1 1/1OOO. The “V2 no. of cells In 1/1OOO” value (surface protein combination No. 120, binary code 011100011111011000) was 0.2 1/1OOO, the “V2 no. of cells In 1/1OOO” value (surface protein combination No. 121, binary code 001000011011001000) was 0.2 1/1OOO and the “V2 no. of cells In 1/1OOO” value (surface protein combination No. 122, binary code 011000001100000100) was 0.3 1/1OOO. The “V2 no. of cells In 1/1OOO” value (surface protein combination No. 123, binary code 000000001100001000) was 0.3 1/1OOO, the “V2 no. of cells In 1/1OOO” value (surface protein combination No. 124, binary code 110000001100001100) was 0.5 1/1OOO and the “V2 no. of cells In 1/1OOO” value (surface protein combination No. 125, binary code 010000011100001000) was 0.5 1/1OOO. The “V2 no. of cells In 1/1OOO” value (surface protein combination No. 126, binary code 001000110111011000) was 0.5 1/1OOO, the “V2 no. of cells In 1/1OOO” value (surface protein combination No. 127, binary code 001000011111000000) was 0.5 1/1OOO and the “V2 no. of cells In 1/1OOO” value (surface protein combination No. 128, binary code 111000001100001100) was 0.7 1/1OOO. The “V2 no. of cells In 1/1OOO” value (surface protein combination No. 129, binary code 011000011100001000) was 0.7 1/1OOO, the “V2 no. of cells In 1/1OOO” value (surface protein combination No. 130, binary code 101100010101011100) was 0.2 1/1OOO and the “V2 no. of cells In 1/1OOO” value (surface protein combination No. 131, binary code 101000010101001000) was 0.3 1/1OOO. For the same compound, the “V2 no. of cells In 1/1OOO” value (surface protein combination No. 134, binary code 010000011100001100) was 0.5 1/1OOO, the “V2 no. of cells In 1/1OOO” value (surface protein combination No. 135, binary code 010000011100000000) was 0.5 1/1OOO and the “V2 no. of cells In 1/1OOO” value (surface protein combination No. 136, binary code 001100010101001100) was 0.5 1/1OOO. The “V2 no. of cells In 1/1OOO” value (surface protein combination No. 137, binary code 001100000000001000) was 0.5 1/1OOO, the “V2 no. of cells In 1/1OOO” value (surface protein combination No. 138, binary code 000000001001001000) was 0.6 1/1OOO and the “V2 no. of cells In 1/1OOO” value (surface protein combination No. 139, binary code 011000001101000000) was 0.1 1/1OOO. For the same compound, the “V2 no. of cells In 1/1OOO” value (surface protein combination No. 140, binary code 000000000011001000) was 0.1 1/1OOO, the “V2 no. of cells In 1/1OOO” value (surface protein combination No. 141, binary code 101000010111011100) was 0.2 1/1OOO and the “V2 no. of cells In 1/1OOO” value (surface protein combination No. 142, binary code 001100000101001000) was 0.2 1/1OOO. For the same compound, the “V2 no. of cells In 1/1OOO” value (surface protein combination No. 143, binary code 011100011111001000) was 0.3 1/1OOO, the “V2 no. of cells In 1/1OOO” value (surface protein combination No. 144, binary code 001100010111000000) was 0.3 1/1OOO and the “V2 no. of cells In 1/1OOO” value (surface protein combination No. 145, binary code 001000000100001000) was 0.3 1/1OOO. The “V2 no. of cells In 1/1OOO” value (surface protein combination No. 146, binary code 011000011001001000) was 0.5 1/1OOO, the “V2 no. of cells In 1/1OOO” value (surface protein combination No. 147, binary code 111100011100011100) was 0.1 1/1OOO and the “V2 no. of cells In 1/1OOO” value (surface protein combination No. 148, binary code 110000001100011100) was 0.1 1/1OOO. The “V2 No. of cells In 1/1000, total” value (total over the 60 combinations occurring exclusively in actinonin-treated Karpas cells) was 9.1 1/1000.
